According to patent publication US9113629B2, “4-amino-6-(4-substituted-phenyl)-picolinates and 6-amino-2-(4-substituted-phenyl)-pyrimidine-4-carboxylates and their use as herbicides” (DOW AGROSCIENCES LLC, priority 2013, dated 2015):
Read-outs that look alike come from different tables or passages of the source.

Tests used:
[1] = test system: Key Broadleaf Weed and Crop Species; assay: Post-emergent Test II herbicidal activity (Table 5); format: in vivo; conditions: post-emergence, 336 h, post-emergent, 14 days after application; for pest or weed control at 70 g/ha: 70 g ai/ha; for pest or weed control at 140 g/ha: 140 g ai/ha
How it was run: (§1)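 Percent injury, 0 (none) to 100 (complete kill), was judged visually 14 d after spraying young plants at the first or second true leaf stage with compound in an acetone/DMSO aqueous carrier at 187 L/ha. Plants were kept in a greenhouse at 23–29 °C by day.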

[2] = test system: Key Grass and Sedge Weeds as well as Grass Crops; assay: Post-emergent Test II herbicidal activity (Table 6); format: in vivo; conditions: post-emergence, 336 h; for pest or weed control at 70 g/ha: application rate 70 g ai/ha; for pest or weed control at 140 g/ha: application rate 140 g ai/ha
How it was run: as §1

[3] = ABUTH: velvetleaf (Abutilon theophrasti), read-out: Visual Growth Reduction (%) 14 Days After Application ABUTH
[4] = AMARE: redroot pigweed (Amaranthus retroflexus), read-out: Visual Growth Reduction (%) 14 Days After Application AMARE
[5] = BRSNN: oilseed-rape, canola (Brassica napus), read-out: Visual Growth Reduction (%) 14 Days After Application BRSNN
[6] = CHEAL: lambsquarters (Chenopodium album), read-out: Visual Growth Reduction (%) 14 Days After Application CHEAL
[7] = EPHHL: wild poinsettia (Euphorbia heterophylla), read-out: Visual Growth Reduction (%) 14 Days After Application EPHHL
[8] = HELAN: sunflower (Helianthus annuus), read-out: Visual Growth Reduction (%) 14 Days After Application HELAN
[9] = VIOTR: wild pansy (Viola tricolor), read-out: Visual Growth Reduction (%) 14 Days After Application VIOTR
[10] = Triticum aestivum, TRZSS (wheat), read-out: Visual Growth Reduction (%) 14 Days After Application, TRZSS
[11] = CYPES: yellow nutsedge (Cyperus esculentus), read-out: Visual Growth Reduction (%) 14 Days After Application, CYPES
[12] = DIGSA: crabgrass (Digitaria sanguinalis), read-out: Visual Growth Reduction (%) 14 Days After Application, DIGSA
[13] = ECHCG: barnyardgrass (Echinochloa crus-galli), read-out: Visual Growth Reduction (%) 14 Days After Application, ECHCG
[14] = ORYSA: rice (Oryza sativa), read-out: Visual Growth Reduction (%) 14 Days After Application, ORYSA
[15] = SETFA: giant foxtail (Setaria faberi), read-out: Visual Growth Reduction (%) 14 Days After Application, SETFA
[16] = SORVU: grain sorghum (Sorghum vulgare), read-out: Visual Growth Reduction (%) 14 Days After Application, SORVU
[17] = ZEAMX: maize, corn (Zea mays), read-out: Visual Growth Reduction (%) 14 Days After Application, ZEAMX

| Structure (SMILES) | pest or weed control at 70 g/ha [1, 3] [%] | pest or weed control at 140 g/ha [1, 3] [%] | pest or weed control at 70 g/ha [1, 4] [%] | pest or weed control at 140 g/ha [1, 4] [%] | pest or weed control at 70 g/ha [1, 5] [%] | pest or weed control at 140 g/ha [1, 5] [%] | pest or weed control at 70 g/ha [1, 6] [%] | pest or weed control at 140 g/ha [1, 6] [%] | pest or weed control at 70 g/ha [1, 7] [%] | pest or weed control at 140 g/ha [1, 7] [%] | pest or weed control at 70 g/ha [1, 8] [%] | pest or weed control at 140 g/ha [1, 8] [%] | pest or weed control at 70 g/ha [1, 9] [%] | pest or weed control at 140 g/ha [1, 9] [%] | melting point [°C] | pest or weed control at 70 g/ha [2, 10] [%] | pest or weed control at 140 g/ha [2, 10] [%] | pest or weed control at 70 g/ha [2, 11] [%] | pest or weed control at 140 g/ha [2, 11] [%] | pest or weed control at 70 g/ha [2, 12] [%] | also measured |
| --- | --- | --- | --- | --- | --- | --- | --- | --- | --- | --- | --- | --- | --- | --- | --- | --- | --- | --- | --- | --- | --- |
| C=Cc1c(C(=O)O)nc(-c2ccc(Br)cc2)c(F)c1N [Compound 117] | 95 to 100 | 95 to 100 | 95 to 100 | 95 to 100 | 75 to 84 | 75 to 84 | 95 to 100 | 95 to 100 | 95 to 100 | 95 to 100 | 85 to 94 | 85 to 94 | 0 to 29 | 0 to 29 | 149 to 151 | 0 to 29 | 0 to 29 | 95 to 100 | 95 to 100 | 0 to 29 | pest or weed control at 140 g/ha [2, 12]: 0 to 29%; pest or weed control at 70 g/ha [2, 13]: 75 to 84%; pest or weed control at 140 g/ha [2, 13]: 75 to 84%; pest or weed control at 70 g/ha [2, 14]: 45 to 59%; pest or weed control at 140 g/ha [2, 14]: 45 to 59%; pest or weed control at 70 g/ha [2, 15]: 0 to 29%; pest or weed control at 140 g/ha [2, 15]: 45 to 59%; pest or weed control at 70 g/ha [2, 16]: 85 to 94%; pest or weed control at 140 g/ha [2, 16]: 85 to 94%; pest or weed control at 70 g/ha [2, 17]: 45 to 59%; pest or weed control at 140 g/ha [2, 17]: 60 to 74% |
| Nc1cc(-c2ccc(Br)cc2F)nc(C(=O)O)c1Cl [Compound 74] | 95 to 100 | 95 to 100 | 95 to 100 | 95 to 100 | 85 to 94 | 85 to 94 | 95 to 100 | 95 to 100 | 95 to 100 | 95 to 100 | 95 to 100 | 95 to 100 | 95 to 100 | 95 to 100 | 186 to 187.3 | 45 to 59 | 60 to 74 | 95 to 100 | 95 to 100 | 85 to 94 | pest or weed control at 140 g/ha [2, 12]: 85 to 94%; pest or weed control at 70 g/ha [2, 13]: 85 to 94%; pest or weed control at 140 g/ha [2, 13]: 85 to 94%; pest or weed control at 70 g/ha [2, 14]: 0 to 29%; pest or weed control at 140 g/ha [2, 14]: 30 to 44%; pest or weed control at 70 g/ha [2, 15]: 75 to 84%; pest or weed control at 140 g/ha [2, 15]: 85 to 94%; pest or weed control at 70 g/ha [2, 16]: 85 to 94%; pest or weed control at 140 g/ha [2, 16]: 85 to 94%; pest or weed control at 70 g/ha [2, 17]: 75 to 84%; pest or weed control at 140 g/ha [2, 17]: 75 to 84% |
| Nc1cc(-c2cc(F)c(Br)cc2F)nc(C(=O)O)c1Cl [Compound 3] | 95 to 100 | 95 to 100 | 95 to 100 | 95 to 100 | 85 to 94 | 95 to 100 | 95 to 100 | 95 to 100 | 95 to 100 | 95 to 100 | 85 to 94 | 85 to 94 | 95 to 100 | 95 to 100 | 172 to 174 | 60 to 74 | 60 to 74 | 95 to 100 | 95 to 100 | 75 to 84 | pest or weed control at 140 g/ha [2, 12]: 85 to 94%; pest or weed control at 70 g/ha [2, 13]: 85 to 94%; pest or weed control at 140 g/ha [2, 13]: 85 to 94%; pest or weed control at 70 g/ha [2, 14]: 30 to 44%; pest or weed control at 140 g/ha [2, 14]: 45 to 59%; pest or weed control at 70 g/ha [2, 15]: 95 to 100%; pest or weed control at 140 g/ha [2, 15]: 95 to 100%; pest or weed control at 70 g/ha [2, 16]: 85 to 94%; pest or weed control at 140 g/ha [2, 16]: 85 to 94%; pest or weed control at 70 g/ha [2, 17]: 85 to 94%; pest or weed control at 140 g/ha [2, 17]: 85 to 94% |
